According to patent US12465627B2, “Immunity-boosting agent, immuno-therapeutic anti-cancer agent, and anti-cancer therapy adverse effect mitigating agent containing anthocyanin-fucoidan complex as active ingredient” (JBKLAB CO., LTD., priority 2017, dated 2025):

Experiments:
[1] = test system: CD8 T cells and NK cells in blood; test: Immune cell activity and weight recovery in doxorubicin-treated mice; type: in vivo, Balb/c mice; details: DOX 10 mg/kg on day 1 and 5; oral administration for 14 days; flow cytometry
[2] = mouse, in vivo
[3] = test system: SK-BR-3 (human breast cancer) transplanted tumor; test: Combined administration with doxorubicin in SK-BR-3 transplanted mice; type: in vivo, Balb/c mice; details: after second intravenous administration of doxorubicin

Row | BASO [2] | EOS [2] | HCT [2] | HGB [2] | LYM [2] | MCHC [2] | MONO [2] | NEUT [2] | PLT [2] | RBC [2] | WBC [2] | Molecule | immune cells (CD8 T cell and NK cell) in blood [1] | body weight change [3]
1 | 3.2% | 3% | 52.6% | 16.5 g/dL | 53.7% | 15 g/dL | 4.3% | 33.9% | 1954 ×10^3 cells/μL | 10.99 ×10^6 cells/μL | 6.57 ×10^3 cells/μL | COc1cccc2c1C(=O)c1c(O)c3c(c(O)c1C2=O)C[C@@](O)(C(=O)CO)C[C@@H]3O[C@H]1C[C@H](N)[C@H](O)[C@H](C)O1 [DOX, doxorubicin] | immune cells decreased | rapid decrease in body weight
2 | 1.5% | 6.1% | 39.8% | 10.9 g/dL | 14.3% | 12 g/dL | 4.6% | 67.9% | 1242 ×10^3 cells/μL | 9.14 ×10^6 cells/μL | 18.41 ×10^3 cells/μL | fucoidan | – | –
